Where two headings read alike, the source gives them in different places.
How the values were obtained:
SH-SY5Y cells [1] = assay: MTT cell viability assay, SH-SY5Y cells; format: cell-based, human; conditions: for Cell viability with inhibitor-containing Hcy solution compared to Hcy alone (MTT): Hcy 2 mg/mL with EGCG 0.1 mM or TA 0.01 mM
Description: SH-SY5Y cells (ATCC CRL-2266) or HEK293 cells (ATCC® CRL-1573) were cultured (2×10^5 cells/mL) in DMEM/Nutrient Mixture F12 (Ham's; 1:1) supplemented with 10% fetal bovine serum (FBS) in 96-well tissue microplates (100 μL per well) and allowed to adhere overnight at 37° C. Half of each plate was plated with cells, with the other half later serving as a control containing solutions alone. The treatment solutions were prepared as follows: Hcy or methionine were dissolved at 90° C. and at various concentrations in cell media without FBS, followed by gradual cooling of the solutions. For solutions containing polyphenols, Hcy (final concentration of 2 mg/mL) was similarly dissolved in cell media and mixed with EGCG or TA (final concentration of 0.1 mM and 0.01 mM, respectively, stock solution dissolved in cell medium) before gradual cooling. The medium was replaced and cells were treated with the solutions (100 μL per well), followed by overnight incubation at 37° C. Control cells were incubated with medium that was treated in the same manner (without Hcy). Controls of media supplemented with the inhibitors, without Hcy, were examined as well. Cell viability was evaluated using the 3-(4,5-dimethylthiazolyl-2)-2,5-diphenyltetrazolium bromide (MTT) assay. Briefly, 10 μL of 5 mg/mL MTT dissolved in PBS was added to each well. After a 4 hours incubation at 37° C. 100 μL of extraction buffer […] dissolved in a mixture of 50% DMF and 50% DDW (pH 4.7)] was added to each well, and the plates were further incubated at 37° C. for 30 min. Finally, color intensity was measured using an ELISA reader at 570 nm. Blank measurements of the solutions without cells were respectively subtracted. The data points are presented as mean±SD. For inhibitors and methionine controls, two-tailed Student's t test was performed when two groups were compared.

Hcy fibrils [2] = assay: TEM of pre-formed solutions of Hcy with polyphenols; conditions: Hcy 2 mg/mL + 1 mM EGCG or 0.1 mM TA
Description: Hcy was dissolved at 90° C. in PBS at various concentrations followed by gradual cooling of the solution. Where indicated, EGCG or TA (final concentration of 1 mM and 0.1 mM, respectively) were added before gradual cooling. Subsequently, 10 μL samples were placed on 400-mesh copper grids. After 2 min, excess fluids were removed. Samples were viewed using a JEOL 1200EX electron microscope operating at 80 kV.

Hcy fibrils [3] = assay: ThT binding assay, inhibition of Hcy self-assembly by polyphenols; format: biochemical; conditions: 1 mM EGCG or 0.1 mM TA added at timepoint zero; Hcy in PBS; emission 480 nm, excitation 440 nm
Description: Hcy was dissolved at 90° C. in PBS to a final concentration of 10, 5 and 2 mg/mL and maintained at 90° C. until the beginning of the measurement. Samples containing polyphenols were immediately mixed with the inhibitors. EGCG or TA (final concentration of 1 mM and 0.1 mM, respectively). As a control, Hcy was diluted with PBS alone to the same final concentrations. ThT in PBS was added to a final concentration of 20 μM for 5 and 10 mg/ml Hcy or 40 μM for 2 mg/ml Hcy. Next, the solutions were plated in a black 96-well, clear, and flat bottom microplate (Greiner) and self-assembly kinetics were recorded over time at room temperature (uncontrolled gradual cooling of the solutions) with short shaking before each read. ThT emission data at 480 nm (excitation at 440 nm), were measured using a Tecan™ SPARK 10 M plate reader, gain of 100 for 2 mg/ml, and using a Tecan™ Infinite 200 PRO plate reader, gain of 90 for 5 and 10 mg/ml.

SH-SY5Y cells [4] = assay: Annexin V and propidium iodide apoptosis assay (flow cytometry); format: cell-based, human
Description: SH-SY5Y cells were cultured at 2×10^5 cells/mL in 24-well plates in DMEM/Nutrient Mixture F12 (Ham's; 1:1) supplemented with 10% FBS and were allowed to adhere overnight at 37° C. The treatment solutions containing Hcy and methionine were prepared as described above for the MTT assay. Cells were treated with the solutions followed by overnight incubation at 37° C. Control cells were incubated with medium that was treated in the same manner without Hcy. The apoptotic effect was evaluated using the MEBCYTO Apoptosis kit (MBL International), according to the manufacturer's instructions. Briefly, the adherent cells were trypsinized, detached and combined with floating cells from the incubated growth medium. Cells were then centrifuged and washed once with PBS and once with binding buffer. Cells were subsequently incubated with annexin V-FITC and PI for 15 min in the dark, resuspended in 200 μL binding buffer and analyzed by flow cytometry using a single laser-emitting excitation light at 488 nm. Data from at least 10^4 cells were acquired using the BD FACSort and the CellQuest software (BD Biosciences). Analysis was performed using the FlowJo software (TreeStar, version 14).

[5] = ThT binding assay of metabolite self-assembly; format: physicochemical; conditions: emission 480 nm
Description: Hcy was dissolved at 90° C. in PBS to a final concentration of 10, 5 and 2 mg/mL and maintained at 90° C. until the beginning of the measurement. Samples containing polyphenols were immediately mixed with the inhibitors. […] As a control, Hcy was diluted with PBS alone to the same final concentrations. […] Next, the solutions were plated in a black 96-well, clear, and flat bottom microplate (Greiner) and self-assembly kinetics were recorded over time at room temperature (uncontrolled gradual cooling of the solutions) with short shaking before each read. […] Following an overnight incubation at room temperature with gentle rotation (uncontrolled gradual cooling of solutions), ThT emission signal at 480 nm (excitation at 450 nm) was measured at room temperature with short shaking before each read and using a Tecan™ Infinite 200 PRO plate reader, gain 90.

[6] = TEM of metabolite self-assembly; format: physicochemical; conditions: dissolved at 90° C., gradual cooling
Description: Hcy was dissolved at 90° C. in PBS at various concentrations followed by gradual cooling of the solution. […] Subsequently, 10 μL samples were placed on 400-mesh copper grids. After 2 min, excess fluids were removed. Samples were viewed using a JEOL 1200EX electron microscope operating at 80 kV.

cys4Δ yeast strain [7] = format: cell-based, Saccharomyces cerevisiae
Description: The cys4 gene was disrupted in wild-type (WT) yeast strain (BY4741) via homologous recombination using PCR fragments amplified from the plasmid pFA6a-KanMX6 as a template with primer DL154:
(§1) WT and cys4Δ strains were grown overnight at 30° C. Unless otherwise specified, the strains were grown on synthetic defined medium (SD) containing 20 mg/L L-methionine, 20 mg/L L-histidine monohydrochloride monohydrate, 20 mg/L uracil and 30 mg/L L-leucine. Cysteine was added to a final concentration of 13 mg/L. Hcy was added at the indicated concentrations.
For spotting assays, strains were diluted to 6.25*10^7 cells/mL and then 5-fold serially diluted and spotted on the indicated plates. Plates were incubated at 30° C. for 2-3 days.
(§2) For OD600 measurements, strains were diluted to OD600 0.01. 200 μL of cells were platted on 96 wells plates and incubated at 30° C. for 30 hours with continuous shaking. OD600 was measured using Tecan™ SPARK 10M plate reader.
(§3) The percentage of growth analysis (FIG. 10F) represents the OD600 levels following 27 hours of growth in the plate reader. The percentage of growth represents the growth under the indicated conditions, with or without 0.3 mM TA, compared to the growth of WT without TA.

WT yeast strain (BY4741) = assay: Yeast growth assay, WT strain; format: cell-based, Saccharomyces cerevisiae; conditions: 0.3 mM TA, SD with 13 mg/L cysteine and 100 mg/L Hcy, 27 hours
Description: as §1, §2, §3

HEK293 cells = assay: MTT cell viability assay, HEK293 cells; format: cell-based; conditions: HEK293 non-neuronal cell line, 24 hours
Description: SH-SY5Y cells (ATCC CRL-2266) or HEK293 cells (ATCC® CRL-1573) were cultured (2×10^5 cells/mL) in DMEM/Nutrient Mixture F12 (Ham's; 1:1) supplemented with 10% fetal bovine serum (FBS) in 96-well tissue microplates (100 μL per well) and allowed to adhere overnight at 37° C. Half of each plate was plated with cells, with the other half later serving as a control containing solutions alone. […] For solutions containing polyphenols, Hcy (final concentration of 2 mg/mL) was similarly dissolved in cell media and mixed with EGCG or TA (final concentration of 0.1 mM and 0.01 mM, respectively, stock solution dissolved in cell medium) before gradual cooling. The medium was replaced and cells were treated with the solutions (100 μL per well), followed by overnight incubation at 37° C. Control cells were incubated with medium that was treated in the same manner (without Hcy). Controls of media supplemented with the inhibitors, without Hcy, were examined as well. Cell viability was evaluated using the 3-(4,5-dimethylthiazolyl-2)-2,5-diphenyltetrazolium bromide (MTT) assay. Briefly, 10 μL of 5 mg/mL MTT dissolved in PBS was added to each well. After a 4 hours incubation at 37° C. […] Finally, color intensity was measured using an ELISA reader at 570 nm. […]

SH-SY5Y cells [8] = assay: ProteoStat staining, confocal microscopy of treated SH-SY5Y cells; format: cell-based, human; conditions: Hcy assemblies 2 mg/mL, 4 hours
Description: SH-SY5Y cells: 2×10^5 cells/mL were cultured in DMEM/Nutrient Mixture F12 (Ham's; 1:1) supplemented with 10% FBS in 24-well plate on glass slides coated with 0.01% Poly-L-Lysine. When reaching ˜70-80% confluency, cells were treated with Hcy (2 mg/mL dissolved at 90° C. in cell media without FBS, followed by gradual cooling of the solution). After 4 hours of incubation, the cells were immediately supplemented with ProtesoStat dye diluted 1:250 in ProteoStat assay buffer followed by incubation for 15 min at room temperature protected from light. Cells were imaged using Leica TCS SP8 laser confocal microscope with ×63 1.4 NA or ×100 1.4 NA oil objectives. An argon laser with 488 excitation line was used for ProteoStat (emission wavelength, 500-600 nm).

β-amyloid1-42 = target: T1, β-amyloid1-42 (Homo sapiens, UniProt P05067); assay: In-vitro seeding of β-amyloid1-42 by Hcy assemblies (ThT binding assay); format: biochemical; conditions: 20% v/v pre-formed Hcy assemblies (2, 5, 10 mg/mL stocks), 3 μM β-amyloid1-42 monomers, 37° C.
T1 construct: purchased rPeptide
T1 sequence (P05067 672-713 limits assumed): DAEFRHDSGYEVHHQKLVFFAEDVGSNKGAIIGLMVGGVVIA
Description: Hcy was dissolved at 90° C. in PBS followed by gradual cooling of the solution. […] (rPeptide) was dissolved in DMSO to a concentration of 120 μM. The monomeric protein was mixed with pre-formed 20% v/v Hcy assemblies (taken from 10, 5 or 2 mg/mL stock solutions), or with an equivalent volume of PBS as a control, to a final concentration of 3 μM β-amyloid1-42 ThT was added to a final concentration of 20 μM. Aggregation was monitored using Tecan™ Infinite 200 PRO fluorescence plate reader over time at 37° C. Blank measurements of Hcy only (without β-amyloid) were respectively subtracted.

cys4Δ yeast strain [9] = assay: Aggregation level assay in yeast (ProteoStat, flow cytometry); format: cell-based, Saccharomyces cerevisiae; conditions: cys4Δ with 100 mg/L Hcy compared to WT and to mutant without Hcy
Description: For each sample, 2×10^6 cells/mL of logarithmic cells were resuspended with ProteoStat dye (Enzo Life Sciences). Cells were incubated for 15 min at room temperature protected from light. Flow cytometry was preformed using Stratedigm S1000EXi and the CellCapTure software (Stratedigm, San Jose, Calif.). Live cells were gated (P1) by forward scatter and side scatter. Fluorescence channels for FITC (530/30) and PE-Cy5 (676/29) were used utilizing a 488 nm laser source. A total of 50,000 events were acquired for each sample. Analyses were performed using the FlowJo software (TreeStar, version 14).

O=C(O[C@@H]1Cc2c(O)cc(O)cc2O[C@@H]1c1cc(O)c(O)c(O)c1)c1cc(O)c(O)c(O)c1 [EGCG, epigallocatechin gallate]
Cell viability, inhibitors alone (MTT) (SH-SY5Y cells [1]; SH-SY5Y, 24 hours, EGCG 0.1 mM or TA 0.01 mM without Hcy): did not affect cell viability | Cell viability with inhibitor-containing Hcy solution compared to Hcy alone (MTT) (SH-SY5Y cells [1]; SH-SY5Y, 24 hours): significant increase in cell viability | Structures seen by TEM in mixture of Hcy with polyphenol (Hcy fibrils [2]): no structures were formed | Inhibition of Hcy fibril formation, ThT fluorescence intensity over time (Hcy fibrils [3]): significant reduction in the ThT fluorescence intensity curves

CSCC[C@H](N)C(=O)O [methionine]
Cytotoxicity (MTT cell viability) (SH-SY5Y cells [1]; SH-SY5Y, 24-hour treatment, solutions prepared in cell medium): did not show any toxicity | Apoptotic activity (annexin V / PI) (SH-SY5Y cells [4]; SH-SY5Y, treated for 24 hours): did not show any apoptotic effect | ThT fluorescence of self-assembly [5]: did not show a fluorescence signal | Formation of amyloid-like fibrils (TEM) [6]: did not form amyloid-like fibrils

O=C(OC[C@H]1O[C@@H](OC(=O)c2cc(O)c(O)c(OC(=O)c3cc(O)c(O)c(O)c3)c2)[C@H](OC(=O)c2cc(O)c(O)c(OC(=O)c3cc(O)c(O)c(O)c3)c2)[C@@H](OC(=O)c2cc(O)c(O)c(OC(=O)c3cc(O)c(O)c(O)c3)c2)[C@@H]1OC(=O)c1cc(O)c(O)c(OC(=O)c2cc(O)c(O)c(O)c2)c1)c1cc(O)c(O)c(OC(=O)c2cc(O)c(O)c(O)c2)c1 [TA, tannic acid]
Cell viability with inhibitor-containing Hcy solution compared to Hcy alone (MTT) (SH-SY5Y cells [1]; SH-SY5Y, 24 hours): significant increase in cell viability | Cell growth with TA (percentage of growth, OD600) (cys4Δ yeast strain [7]; cys4Δ, 0.3 mM TA, SD with 13 mg/L cysteine and 100 mg/L Hcy, 27 hours): significantly improved the cell growth | Structures seen by TEM in mixture of Hcy with polyphenol (Hcy fibrils [2]): no structures were formed | Cell growth with TA (percentage of growth, OD600) (WT yeast strain (BY4741)): no effect | Inhibition of Hcy fibril formation, ThT fluorescence intensity over time (Hcy fibrils [3]): significant reduction in the ThT fluorescence intensity curves

NC(CCS)C(=O)O (centres unmarked) [Hcy, 2-Amino-4-sulfanylbutanoic acid]
Cytotoxicity (MTT cell viability) (SH-SY5Y cells [1]): dose-dependent cytotoxicity | Cell death (MTT) (SH-SY5Y cells [1]; SH-SY5Y, 24-hour treatment with pre-formed Hcy assemblies in cell medium): up to 80% | Apoptotic activity (annexin V / PI) (SH-SY5Y cells [4]): stimulated apoptotic activity in a concentration-dependent manner | Cytotoxicity (MTT cell viability) (HEK293 cells): no significant toxicity | Detection of amyloid-like structures in cells (ProteoStat) (SH-SY5Y cells [8]): amyloid-like structures in treated SH-SY5Y cells | ThT fluorescence of self-assembly [5]: higher metabolite concentrations showing stronger ThT fluorescence | Cross-seeding of β-amyloid1-42 aggregation (ThT signal) (β-amyloid1-42): induced β-amyloid1-42 aggregation in a concentration-dependent manner | Growth sensitivity to Hcy supplied in the growth medium (cys4Δ yeast strain [7]; cys4Δ compared to WT, SD media with Hcy at different concentrations): sensitivity to Hcy supplied in the growth medium was observed | Degree of aggregation upon Hcy feeding (ProteoStat flow cytometry) (cys4Δ yeast strain [9]): significantly higher degree of aggregation | Formation of amyloid-like fibrils (TEM) [6]: formed amyloid-like fibrils

From patent publication US20220390471A1, “INTEGRATED DRUG DISCOVERY PLATFORM FOR PROTEIN MISFOLDING DISORDERS ASSOCIATED WITH METABOLITE ACCUMULATION” (Ramot at Tel-Aviv University Ltd., priority 2021, published 2022)
